Source: patent publication US12492197B2, “3,5-disubstituted pyrazole compounds as kinase inhibitors and uses thereof” (IMPACT THERAPEUTICS (SHANGHAI), INC, priority 2019, dated 2025)
pIC50: −log10 of the molar value.

What was measured:
[1] = system: human colon cancer cell LoVo; experiment: Proliferation of LoVo cells, MTT assay; format: cell-based; conditions: 96 h, 4 days treatment, read-out: IC50 (inhibition of proliferation of LoVo)
CHK1 kinase = biological target: T1, CHK1 kinase (Homo sapiens, UniProt O14757); experiment: CHK1 kinase inhibition, ADP-Glo kinase assay; format: biochemical; conditions: ATP 10 μM, CHK1 1 ng/well; for pIC50: read-out: IC50 (inhibitory effect on CHK1 kinase activity); for inhibition at 0.01 µM: compound concentration 10 nM, read-out: Inh % (inhibitory effect on CHK1 kinase activity)
T1 construct: purchased Promega V1941
T1 sequence (O14757 1-476): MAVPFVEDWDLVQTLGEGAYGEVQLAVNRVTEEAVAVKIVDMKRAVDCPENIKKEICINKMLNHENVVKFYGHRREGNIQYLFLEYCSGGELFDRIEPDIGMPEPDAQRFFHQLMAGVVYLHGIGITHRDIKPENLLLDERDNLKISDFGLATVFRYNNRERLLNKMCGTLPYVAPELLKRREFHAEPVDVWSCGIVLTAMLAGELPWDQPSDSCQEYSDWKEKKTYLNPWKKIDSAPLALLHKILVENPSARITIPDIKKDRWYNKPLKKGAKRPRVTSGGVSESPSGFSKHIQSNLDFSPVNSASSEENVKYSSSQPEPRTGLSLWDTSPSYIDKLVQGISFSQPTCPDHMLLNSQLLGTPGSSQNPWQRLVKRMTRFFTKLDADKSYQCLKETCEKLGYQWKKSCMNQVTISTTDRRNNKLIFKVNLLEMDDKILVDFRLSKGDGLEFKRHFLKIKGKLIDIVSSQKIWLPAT

[2] = system: human pancreatic cancer cell SW1990; experiment: Proliferation of SW1990 cells, MTT assay; format: cell-based; conditions: SW1990, 120 h, 5 days treatment, read-out: IC50 (inhibition of proliferation of SW1990)
Experimental: Newly revived SW1990 cells (purchased from Shanghai Fuheng Biology) were cultured and passaged for at least three generations before use. Cells were used at about 90% confluency for experiments. Cells were digested with trypsinase and centrifuged at 800 rpm for 5 minutes. The cell pellets were resuspended in fresh DMEM medium and cells were counted. Cells were seeded on 96-well cell culture plates at 5000 cells/well and incubated overnight at 37° C., 5% CO2. The stock solutions of the test substances (including the test compounds and the reference compound) were serially diluted to 8 concentrations with DMSO at a ratio of 1:3. 5 μL of each serially diluted solutions was added to 120 μL of medium (diluted by 25 times) and mixed by shaking. […] The cell culture plates were returned to incubator at 37° C. and 5% CO2 for 5 days. At the end of the treatment the cell viability was determined by MTT colorimetric assay. Cell culture medium in each well was replaced by 100 μL/well of serum-free fresh medium containing MTT (0.5 mg/mL), and the culture was continued for additional 4 hours. Medium was then discarded and 100 μL/well of DMSO was added.
Data was analyzed by GraphPad Prism 6.0. The inhibitory effects of compounds on cell proliferation were plotted based on cell viability vs. the logarithm of compound concentration. Cell viability %=(ODcompound−ODbackground)/(ODDMSO−ODbackground)×100.

[3] = system: human breast cancer cell HCC1806; experiment: Proliferation of HCC1806 cells, MTT assay; format: cell-based; conditions: HCC1806, 72 h, 3 days treatment, read-out: IC50 (inhibition of proliferation of HCC1806)

For COc1cccc(OC[C@@H]2CNCCO2)c1-c1cc(Nc2cnc(C#N)cn2)n[nH]1 [Example 1, (S)-5-((5-(2-methoxy-6-(morpholin-2-ylmethoxy)phenyl)-1H-pyrazol-3-yl)amino)pyrazine-2-carbonitrile], the pIC50 [1] was 7.81, the pIC50 (CHK1 kinase) was 9.08 and the inhibition at 0.01 µM (CHK1 kinase) was 95%. The pIC50 [2] was 8.20 and the pIC50 [3] was 8.13.
Compound COc1cccc(OC[C@@H]2CNCCO2)c1-c1cc(Nc2cnc(C(F)(F)F)cn2)n[nH]1 [Example 5, (S)—N-(5-(2-methoxy-6-(morpholin-2-ylmethoxy)phenyl)-1H-pyrazol-3-yl)-5-(trifluoromethyl)pyrazin-2-amine] has an inhibition at 0.01 µM (CHK1 kinase) of 50%, a pIC50 [2] of 6.54 and a pIC50 [3] of 6.40.
For COc1cccc(OC[C@H]2CCCNC2)c1-c1cc(Nc2cnc(C#N)cn2)n[nH]1 [Example 9, (S)-5-((5-(2-methoxy-6-(piperidin-3-ylmethoxy)phenyl)-1H-pyrazol-3-yl)amino)pyrazine-2-carbonitrile], the pIC50 [1] was 8.36, the pIC50 (CHK1 kinase) was 9.01 and the inhibition at 0.01 µM (CHK1 kinase) was 92%. It also gave a pIC50 [2] of 8.92 and a pIC50 [3] of 8.92.
Work on COc1cccc(OCC2CCNCC2)c1-c1cc(Nc2cnc(C#N)cn2)n[nH]1 [Example 12, 5-((5-(2-methoxy-6-(piperidin-4-ylmethoxy)phenyl)-1H-pyrazol-3-yl)amino)pyrazine-2-carbonitrile] yielded a pIC50 (CHK1 kinase) of 9.14, a pIC50 [2] of 8.00 and a pIC50 [3] of 7.86.
With COc1cccc(OC[C@H]2CCNC2)c1-c1cc(Nc2cnc(C#N)cn2)n[nH]1 [Example 13, (S)-5-((5-(2-methoxy-6-(pyrrolidin-3-ylmethoxy)phenyl)-1H-pyrazol-3-yl)amino)pyrazine-2-carbonitrile] the pIC50 (CHK1 kinase) was 9.35, the pIC50 [2] was 8.72 and the pIC50 [3] was 8.68.
Work on COc1cc(F)cc(OC[C@@H]2CNCCO2)c1-c1cc(Nc2cnc(C#N)cn2)n[nH]1 [Example 14, (S)-5-((5-(4-fluoro-2-methoxy-6-(morpholin-2-ylmethoxy)phenyl)-1H-pyrazol-3-yl)amino)pyrazine-2-carbonitrile] yielded a pIC50 [1] of 7.72, a pIC50 (CHK1 kinase) of 9.16 and an inhibition at 0.01 µM (CHK1 kinase) of 94%. For the same compound, the pIC50 [2] was 8.21 and the pIC50 [3] was 7.92.
In the case of COc1c(Cl)ccc(OC[C@@H]2CNCCO2)c1-c1cc(Nc2cnc(C#N)cn2)n[nH]1 [Example 15, (S)-5-((5-(3-chloro-2-methoxy-6-(morpholin-2-ylmethoxy)phenyl)-1H-pyrazol-3-yl)amino)pyrazine-2-carbonitrile], the inhibition at 0.01 µM (CHK1 kinase) was 40%, the pIC50 [2] was 6.09 and the pIC50 [3] was less than 6.00.
Compound COc1cc(Cl)cc(OC[C@@H]2CNCCO2)c1-c1cc(Nc2cnc(C#N)cn2)n[nH]1 [Example 16, (S)-5-((5-(4-chloro-2-methoxy-6-(morpholin-2-ylmethoxy)phenyl)-1H-pyrazol-3-yl)amino)pyrazine-2-carbonitrile] has an inhibition at 0.01 µM (CHK1 kinase) of 93%, a pIC50 [2] of 7.93 and a pIC50 [3] of 7.93.
Compound COc1ccc(Cl)c(OC[C@@H]2CNCCO2)c1-c1cc(Nc2cnc(C#N)cn2)n[nH]1 [Example 17, (S)-5-((5-(3-chloro-6-methoxy-2-(morpholin-2-ylmethoxy)phenyl)-1H-pyrazol-3-yl)amino)pyrazine-2-carbonitrile] has an inhibition at 0.01 µM (CHK1 kinase) of 50%, a pIC50 [2] of 6.21 and a pIC50 [3] of 6.05.
With COc1cc(Br)cc(OC[C@@H]2CNCCO2)c1-c1cc(Nc2cnc(C#N)cn2)n[nH]1 [Example 18, (S)-5-((5-(4-bromo-2-methoxy-6-(morpholin-2-ylmethoxy)phenyl)-1H-pyrazol-3-yl)amino)pyrazine-2-carbonitrile] the inhibition at 0.01 µM (CHK1 kinase) was 79%, the pIC50 [2] was 7.71 and the pIC50 [3] was 7.41.
For COc1cccc(OC2CCNCC2)c1-c1cc(Nc2cnc(C#N)cn2)n[nH]1 [Example 30, 5-((5-(2-methoxy-6-(piperidin-4-yloxy)phenyl)-1H-pyrazol-3-yl)amino)pyrazine-2-carbonitrile], the inhibition at 0.01 µM (CHK1 kinase) was 89%, the pIC50 [2] was 7.72 and the pIC50 [3] was 7.50.
